Positions of bridges follow the written chain, without caps; N, C: chain ends. Non-standard residues stand in square brackets, D forms with d. Residues, ends and D or L forms follow the SMILES beside them. *: point of attachment. X1 = CC[C@H](C)CCCCC(=O)*; Dab = NCC[C@H](N)C(=O)O
Tests used:
[1] = cited from earlier work
Source text: Colistin use has reemerged in recent years for the treatment of multidrug-resistant Gram-negative infections, which has prompted the performance of a large number of clinical and PK studies of its use in the last decade. However, there is still little pharmacological information in patients at high risk of under- or overdosing, such as those with CKD. […] CMS, the pro-drug, is renally eliminated by glomerular filtration and active tubular secretion. Previ ... || Recent toxicodynamic studies performed in the general population indicate that the risk of nephrotoxicity in patients receiving CMS increases with plasma colistin concentration exceeding 2.5 mg/L [13, 15]. This point, together with the lack of information on the minimum inhibitory concentrations (MIC) at the beginning of CMS treatment, have led to consideration of an average Css,avg of 2 mg/L as a target when initiating therapy. The median Css,avg in this study was 0.9 mg/L, which is far below the above-mentioned recommended 2 mg/L [11] but is also below those reported in previous ... || Blood samples were obtained just before the next dose on day 3–4 of the treatment. […] Concentrations of CMS and formed colistin in plasma were measured using a validated high-performance liquid chromatography (HPLC) method. The limit of quantification of the HPLC methods for colistin and CMS in plasma were 0.20 and 0.50 mg/L, respectively. As the plasma concentration-time profiles of formed colistin are almost flat, measured colistin concentrations were regarded as Cs ...

[2] = Worsened renal function (nephrotoxicity) at end of treatment, RIFLE criteria; conditions: multivariate logistic regression
Protocol: (§2) Patient data included demographic information, SOFA score [31], Charlson comorbidity index [32], CMS treatment (indication, daily and total cumulative dose measured in millions of IU and treatment duration). GFR at baseline and at EOT was calculated using the abbreviated Modification of Diet in Renal Disease equation (MDRD-4) [33]. WRF was defined as a decrease in GFR ≥25% and was classified according to the Risk, Injury, Failure, Loss of kidney function, and End-stage kidney disease (RIFLE) criteria [34]. Patients with WRF were followed up until GFR recovery or until hospital discharge. Information was collected on the concomitant use of other potential nephrotoxic drugs such as aminoglycosides, vancomycin, angiotensin II receptor blockers, angiotensin-converting enzyme (ACE) inhibitors, loop diuretics, intravenous dye, amphotericin B and non-steroidal anti-inflammatory drugs (NSAIDs), as well as the need for vasopressor drugs or discontinuation of CMS due to nephrotoxicity. Combination therapy with other antibiotics with potential activity or synergy with colistin was assessed.
(§3) Dichotomous data were compared using a χ^2 or Fisher’s exact test. Normally distributed continuous data are expressed as means and standard deviations (SD), and were compared using the t-test. Otherwise, values are presented as means with interquartile range (IQR) and were compared using the Mann-Whitney U-test. The baseline and clinical characteristics of patients receiving different CMS doses were compared using the ANOVA or Kruskal-Wallis test. Multivariate analysis of risk factors for colistin-associated nephrotoxicity was conducted using logistic regression. Univariate analyses were performed separately for each of the risk factor variables to ascertain the odds ratio (OR) and 95% confidence interval (CI). All clinically important covariates and those with p < 0.3 in the univariate analyses were included in the multivariate analysis.

[3] = Colistin plasma concentration at steady state (Css,avg) by HPLC in CMS-treated patients with CKD; format: in vivo, human
Protocol: We conducted a prospective observational study in a cohort of patients with CKD and infections caused by extensively drug-resistant P. aeruginosa treated with intravenous CMS for at least 48 h. The study was carried out at Hospital del Mar, a tertiary care university hospital in Barcelona (Spain), from January 2010 to August 2018. The study was approved by the local ethics committee (Comité Ètic d’Investigació Clínica del Parc de Salut Mar. Approval number 2011/4501/I). Exclusion criteria were age <18 years, pregnancy, and breast-feeding during the study period. A pharmacy-generated alarm system was used to identify patients under CMS treatment. […]
The dosage regimen and dose adjustments were determined by the treating physician. […]
Blood samples were obtained just before the next dose on day 3–4 of the treatment. […] Concentrations of CMS and formed colistin in plasma were measured using a validated high-performance liquid chromatography (HPLC) method. The limit of quantification of the HPLC methods for colistin and CMS in plasma were 0.20 and 0.50 mg/L, respectively. As the plasma concentration-time profiles of formed colistin are almost flat, measured colistin concentrations were regarded as Css,avg. The percentage of patients achieving the therapeutic target defined as a Css,avg of 2 mg/L was also analyzed. […] We calculated the expected Css based on the formula of Nation et al..

[4] = in vivo
Protocol: as §2, §3

[5] = human, in vivo; cited from earlier work
Protocol: Recent toxicodynamic studies performed in the general population indicate that the risk of nephrotoxicity in patients receiving CMS increases with plasma colistin concentration exceeding 2.5 mg/L [13, 15]. This point, together with the lack of information on the minimum inhibitory concentrations (MIC) at the beginning of CMS treatment, have led to consideration of an average Css,avg of 2 mg/L as a target when initiating therapy. […] Rates of nephrotoxicity in patients treated with CMS range from 20% to 60% according to recent studies using standardized criteria to evaluate nephrotoxicity. Even though WRF was reversible in more than 50% of patients, the diagnosis and management of this complication during CMS treatment is a challenge in daily clinical practice, since nephrotoxicity is potentially related to worse clinical outcomes. In two previous studies by our group, the pre ...

[6] = tested on: extensively drug-resistant Pseudomonas aeruginosa; assay: Clinical cure / clinical failure in CKD patients treated with intravenous CMS; format: in vivo
Protocol: We conducted a prospective observational study in a cohort of patients with CKD and infections caused by extensively drug-resistant P. aeruginosa treated with intravenous CMS for at least 48 h. The study was carried out at Hospital del Mar, a tertiary care university hospital in Barcelona (Spain), from January 2010 to August 2018. The study was approved by the local ethics committee (Comité Ètic d’Investigació Clínica del Parc de Salut Mar. Approval number 2011/4501/I). Exclusion criteria were age <18 years, pregnancy, and breast-feeding during the study period. A pharmacy-generated alarm system was used to identify patients under CMS treatment. The study investigators performed the assessment from the first day of the treatment and informed consent was obtained from all participants or their legal representatives.
(§1) CKD was defined as kidney damage or GFR <60 mL/min/1.73 m^2 for 3 months or more, irrespective of cause. Infections were defined according to the Centers for Disease Control and Prevention. Clinical failure was defined as a lack of improvement in patients or in at least one of the initial symptoms, worsening or death. Clinical cure was defined as either the absence of symptoms or as a consistent improvement in the signs and symptoms of the infection. Thirty-day all-cause mortality was considered as death from any cause during the 30 days following EOT. Combined antibiotic treatment consisted of CMS plus meropenem or CMS plus amikacin.
The dosage regimen and dose adjustments were determined by the treating physician. Since this study was performed over more than 8 years, colistin daily doses varied during this time. From 2010 to 2014, dose adjustments were made according to the package insert’s recommended dosing as follows: GFR ≥76 mL/min/1.73 m^2, 4–6 million IU daily in three doses; GFR 40–75 mL/min/1.73 m^2, 2–3 million IU daily in two doses; GFR 25–40 mL/min/1.73 m^2, 1.5–2 million IU daily divided in one or two doses and; GFR <25 mL/min/1.73 m^2, 0.6–1 million IU daily every 36 h. In 2014, a new protocol based on our previous experience was implemented in our center and CMS was adjusted as follows: GFR ≥90 mL/min/1.73 m^2, 9 million IU daily in three doses; GFR 50–89 mL/min/1.73 m^2, 3 million IU every 12 h, GFR 10–49 mL/min/1.73 m^2, 3 million IU per day; GFR ≤10 mL/min/1.73 m^2, 2 million IU/day. However, the final dose was chosen by the treating physician. CMS (colistimethate formulation for intravenous use, GES Genéricos Españoles®, Las Rozas, Spain was diluted in 100 mL of physiological saline before intravenous administration over 30 min. Each vial contained 1 million IU of CMS (equivalent to 80 mg CMS).

[7] = 30-day all-cause mortality in CMS-treated CKD patients; format: in vivo, human
Protocol: as §1

[8] = human, in vivo, iv
[9] = Garonzik et al. pharmacokinetic study, ref [8]
[10] = diagnosis SSTI (skin and soft tissue infection)
[11] = diagnosis UTI (urinary tract infection)

CC[C@H](C)CCCCC(=O)N[C@@H](CCN)C(=O)N[C@H](C(=O)N[C@@H](CCN)C(=O)N[C@H]1CCNC(=O)[C@H]([C@@H](C)O)NC(=O)[C@H](CCN)NC(=O)[C@H](CCN)NC(=O)[C@H](CC(C)C)NC(=O)[C@@H](CC(C)C)NC(=O)[C@H](CCN)NC1=O)[C@@H](C)O [colistin] (X1-[Dab]T[Dab][Dab][Dab][dL]L[Dab][Dab]T; lactam 4-C)
Colistin Css,avg, median [1, 9]: 2360 ng/mL
Colistin Css,avg, range [1, 9]: 480 to 9380 ng/mL
Colistin plasma concentration in previous studies in the general population ([1]; IQR 0.11–5.99, ref [7],[13]): 1.06
Half-life ([1]; assumed for steady state on day 3–4, ref [10]): approximately 14 h
OR of Css as independent risk factor for colistin-associated nephrotoxicity at the end of treatment ([2]; 95% CI 1.02–10.1, p = 0.047): 3.21
Css,avg (colistin plasma concentration at steady-state), median (interquartile range) ([3]; all CKD patients n = 59, iv CMS, median daily dose 3 million IU, blood just before next dose on day 3–4, plasma, HPLC): 900 ng/mL
Css,avg ([3]; patients with clinical cure (n = 43), unit printed in Table 1 only): 800 ng/mL

colistimethate sodium [CMS]
GFR at EOT, median (interquartile range) [4]: 30.1 (6.51–81.4) mL/min/1.73 m^2
Incidence of WRF at EOT [4]: 33.9%
Recovery of baseline renal function [4]: 10 (52.6) n (%)
WRF (worsened renal function) at the end of treatment [4]: 20 (33.9) n (%)
WRF at EOT, RIFLE class F (Failure) [4]: 3 (15) n (%)
WRF at EOT, RIFLE class I (Injury) [4]: 10 (50) n (%)
WRF at EOT, RIFLE class R (Risk) [4]: 3 (15) n (%)
WRF reversible, patients [4]: 52.6%
CMS dose renally excreted in the urine ([1]; during the first 24 h after dosing, ref [21]): about 60%
Urinary excretion of CMS after intravenous administration ([1]; patients, within the first 6 h, ref [22]): rapid urinary excretion
Rates of nephrotoxicity in patients treated with CMS [5]: 20-60%
Clinical cure, patients ([6]; 43 of 59 CKD patients, iv CMS, XDR P. aeruginosa infections): 72.9%
Patients with clinical cure [6, 10]: 3 (60) n (%)
Patients with clinical failure [6, 10]: 2 (40) n (%)
Patients with clinical cure [6, 11]: 15 (93.6) n (%)
Patients with clinical failure [6, 11]: 1 (6.25) n (%)
Patients with clinical cure ([6]; diagnosis bacteremia): 3 (100) n (%)
Patients with clinical failure ([6]; diagnosis bacteremia): 0 (0) n (%)
Patients with clinical cure ([6]; diagnosis others): 4 (57.1) n (%)
Patients with clinical failure ([6]; diagnosis others): 3 (42.9) n (%)
Patients with clinical cure ([6]; diagnosis pneumonia): 7 (50) n (%)
Patients with clinical failure ([6]; diagnosis pneumonia): 7 (50) n (%)
Patients with clinical cure ([6]; diagnosis tracheobronchitis): 11 (78.6) n (%)
Patients with clinical failure ([6]; diagnosis tracheobronchitis): 3 (21.43) n (%)
OR of DOT (days of CMS treatment) as risk factor for colistin-associated nephrotoxicity at the end of treatment ([2]; p = 0.069): 1.11
30-day all-cause mortality ([7]; patients with clinical failure (n = 16)): 13 (81.3) n (%)
30-day all-cause mortality ([7]; patients without nephrotoxicity at EOT (n = 39)): 10 (25.64) n (%)
Neurotoxicity [8]: none of the patients in this cohort developed neurotoxicity

From publication PMC6384574, “Colistin Use in Patients with Chronic Kidney Disease: Are We Underdosing Patients?” (Molecules, 2019)
